In patent publication US8445510B2, “Fused bicyclic kinase inhibitors” (OSI Pharmaceuticals, LLC, priority 2011, dated 2013):

How the values were obtained:
MKN45 cells = experiment: MKN45 cell proliferation assay (CellTiter-Glo); format: cell-based; details: Homo sapiens, MKN-45, 72 h; MKN45 cell line; 3 days incubation; at least duplicate experiments; read-out: Prolif. IC50
RON = target: T1, RON (Homo sapiens, UniProt Q04912); experiment: sfRON cell mechanistic assay (HeLa), phosphorylated RON ELISA; format: cell-based; details: HeLa cells transfected with sfRON; inhibition of phosphorylated RON; four hours incubation; at least duplicate experiments; read-out: sfRON mech IC50
T1 sequence (Q04912 913-1400): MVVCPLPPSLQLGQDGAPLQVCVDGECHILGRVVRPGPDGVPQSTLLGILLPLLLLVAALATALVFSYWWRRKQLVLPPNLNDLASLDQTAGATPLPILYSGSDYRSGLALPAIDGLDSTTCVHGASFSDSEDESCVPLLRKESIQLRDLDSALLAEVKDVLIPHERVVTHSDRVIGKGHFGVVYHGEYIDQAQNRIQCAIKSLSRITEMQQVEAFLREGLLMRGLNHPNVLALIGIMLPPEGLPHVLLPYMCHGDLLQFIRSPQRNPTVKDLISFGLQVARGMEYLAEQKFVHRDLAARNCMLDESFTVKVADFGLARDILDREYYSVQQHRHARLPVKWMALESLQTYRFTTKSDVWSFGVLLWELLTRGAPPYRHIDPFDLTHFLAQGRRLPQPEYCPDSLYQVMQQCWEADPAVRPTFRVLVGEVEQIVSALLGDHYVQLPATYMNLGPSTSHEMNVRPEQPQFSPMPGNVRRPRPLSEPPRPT
Procedure, shortened: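 HeLa cells transiently transfected with sfRON plasmid, then exposed 4 h at 37 °C to a 6-point compound series (typically 10 μM to 3 nM, 0.5% DMSO). Phospho-RON (pY1238/1239) in lysates measured by sandwich ELISA with luminescence. IC50 from 4-parameter fit of percent-of-DMSO-control data, at least duplicate runs.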

| Structure (SMILES) | IC50 (MKN45 cells) [nM] | IC50 (RON) [nM] |
| --- | --- | --- |
| COc1nn([C@H]2CC[C@H](O)CC2)cc1-c1cnc2[nH]cc([C@H](C)c3c(OC(F)F)ccc(F)c3Cl)c2c1 [Example 100, trans-4-[4-(3-{(1S)-1-[2-chloro-6-(difluoromethoxy)-3-fluorophenyl]ethyl}-1H-pyrrolo[2,3-b]pyridin-5-yl)-3-methoxy-1H-pyrazol-1-yl]cyclohexanol] | ≤ 50 | ≤ 200 |
| Cc1c(-c2cnc3[nH]cc([C@H](C)c4c(O)ccc(F)c4Cl)c3c2)cnn1[C@H]1CC[C@H](O)CC1 [Example 102, 3-Chloro-4-fluoro-2-[(1S)-1-{5-[1-(trans-4-hydroxycyclohexyl)-5-methyl-1H-pyrazol-4-yl]-1H-pyrrolo[2,3-b]pyridin-3-yl}ethyl]phenol] | ≤ 50 | 200 to 1000 |
| CCOc1ccc(F)c(Cl)c1[C@@H](C)c1c[nH]c2ncc(-c3cnn([C@H]4CC[C@H](O)CC4)c3C)cc12 [Example 103, trans-4-(4-{3-[(1S)-1-(2-Chloro-6-ethoxy-3-fluorophenyl)ethyl]-1H-pyrrolo[2,3-b]pyridin-5-yl}-5-methyl-1H-pyrazol-1-yl)cyclohexanol] | ≤ 50 | ≤ 200 |
| Cc1c(-c2cnc3[nH]cc([C@H](C)c4c(OCC(F)(F)F)ccc(F)c4Cl)c3c2)cnn1[C@H]1CC[C@H](O)CC1 [Example 105, trans-4-[4-(3-{(1S)-1-[2-Chloro-3-fluoro-6-(2,2,2-trifluoroethoxy)-phenyl]ethyl}-1H-pyrrolo[2,3-b]pyridin-5-yl)-5-methyl-1H-pyrazol-1-yl]cyclohexanol] | ≤ 50 | ≤ 200 |
| Cc1c(-c2cnc3[nH]cc(C(C#N)c4c(Cl)ccc(F)c4Cl)c3c2)cnn1[C@H]1CC[C@H](O)CC1 (stereo partly drawn) [Example 108, (2,6-Dichloro-3-fluorophenyl){5-[1-(trans-4-hydroxycyclohexyl)-5-methyl-1H-pyrazol-4-yl]-1H-pyrrolo[2,3-b]pyridin-3-yl}acetonitrile] | 50 to 200 | > 1000 |
| [2H][C@@](C)(c1c(OC)ccc(F)c1Cl)c1c[nH]c2ncc(-c3cnn([C@H]4CC[C@H](O)CC4)c3C)cc12 [Example 110, trans-4-(4-{3-[(1S)-1-(2-Chloro-3-fluoro-6-methoxyphenyl)(1-^2H)ethyl]-1H-pyrrolo[2,3-b]pyridin-5-yl}-5-methyl-1H-pyrazol-1-yl)cyclohexanol] | ≤ 50 | 200 to 1000 |
| [2H]C([2H])([2H])[C@H](c1c(OC)ccc(F)c1Cl)c1c[nH]c2ncc(-c3cnn([C@H]4CC[C@H](O)CC4)c3C)cc12 [Example 111, trans-4-(4-{3-[(1S)-1-(2-Chloro-3-fluoro-6-methoxyphenyl)(2,2,2-^2H3)ethyl]-1H-pyrrolo[2,3-b]pyridin-5-yl}-5-methyl-1H-pyrazol-1-yl)cyclohexanol] | ≤ 50 | 200 to 1000 |
| COc1ccc(F)c(Cl)c1[C@@H](CF)c1c[nH]c2ncc(-c3cnn([C@H]4CC[C@H](O)CC4)c3C)cc12 [Example 121, trans-4-(4-{3-[(1S)-1-(2-Chloro-3-fluoro-6-methoxyphenyl)-2-fluoroethyl]-1H-pyrrolo[2,3-b]pyridin-5-yl}-5-methyl-1H-pyrazol-1-yl)cyclohexanol] | ≤ 50 | 200 to 1000 |
| Cc1c(-c2cnc3[nH]cc([C@H](CF)c4c(OC(F)F)ccc(F)c4Cl)c3c2)cnn1[C@H]1CC[C@H](O)CC1 [Example 124, trans-4-[4-(3-{(1S)-1-[2-chloro-6-(difluoromethoxy)-3-fluorophenyl]-2-fluoroethyl}-1H-pyrrolo[2,3-b]pyridin-5-yl)-5-methyl-1H-pyrazol-1-yl]cyclohexanol] | ≤ 50 | ≤ 200 |
| C[C@H](c1c(OC(F)F)ccc(F)c1Cl)c1c[nH]c2ncc(-c3cnc(N4CCC(O)CC4)n3C)cc12 [Example 125, 1-[5-(3-{(1S)-1-[2-Chloro-6-(difluoromethoxy)-3-fluorophenyl]ethyl}-1H-pyrrolo[2,3-b]pyridin-5-yl)-1-methyl-1H-imidazol-2-yl]piperidin-4-ol] | ≤ 50 | ≤ 200 |
| C[C@H](c1c(OC(F)F)ccc(F)c1Cl)c1c[nH]c2ncc(-c3cnc([C@H]4CC[C@H](O)CC4)n3C)cc12 [Example 126, trans-4-[5-(3-{(1S)-1-[2-Chloro-6-(difluoromethoxy)-3-fluorophenyl]ethyl}-1H-pyrrolo[2,3-b]pyridin-5-yl)-1-methyl-1H-imidazol-2-yl]cyclohexanol] | ≤ 50 | ≤ 200 |

Now from value to compound:

| IC50 (MKN45 cells) [nM] | IC50 (RON) [nM] | Structure (SMILES) |
| --- | --- | --- |
| ≤ 50 | ≤ 200 | COc1ccc(F)c(Cl)c1[C@@H](C)c1c[nH]c2ncc(-c3cn([C@H]4CC[C@H](O)CC4)nc3OC)cc12 [Example 99, trans-4-(4-{3-[(1S)-1-(2-chloro-3-fluoro-6-methoxyphenyl)ethyl]-1H-pyrrolo[2,3-b]pyridin-5-yl}-3-methoxy-1H-pyrazol-1-yl)cyclohexanol] |
| ≤ 50 | 200 to 1000 | Cc1c(-c2cnc3[nH]cc([C@H](C)c4c(OC(C)C)ccc(F)c4Cl)c3c2)cnn1[C@H]1CC[C@H](O)CC1 [Example 104, trans-4-[4-(3-{(1S)-1-[2-Chloro-3-fluoro-6-(propan-2-yloxy)phenyl]ethyl}-1H-pyrrolo[2,3-b]pyridin-5-yl)-5-methyl-1H-pyrazol-1-yl]cyclohexanol] |
| ≤ 50 | 200 to 1000 | COc1cc(OC)c(Cl)c([C@@H](C)c2c[nH]c3ncc(-c4cnn([C@H]5CC[C@H](O)CC5)c4C)cc23)c1Cl [Example 106, trans-4-(4-{3-[(1S)-1-(2,6-Dichloro-3,5-dimethoxyphenyl)ethyl]-1H-pyrrolo[2,3-b]pyridin-5-yl}-5-methyl-1H-pyrazol-1-yl)cyclohexanol] |
| ≤ 50 | 200 to 1000 | [2H]C([2H])([2H])Oc1ccc(F)c(Cl)c1[C@@H](C)c1c[nH]c2ncc(-c3cnn([C@H]4CC[C@H](O)CC4)c3C)cc12 [Example 107, trans-4-(4-{3-[(1S)-1-{2-Chloro-3-fluoro-6-[(^2H3)methyloxy]phenyl}ethyl]-1H-pyrrolo[2,3-b]pyridin-5-yl}-5-methyl-1H-pyrazol-1-yl)cyclohexanol] |
| 200 to 1000 | 200 to 1000 | Cc1c(-c2cnc3[nH]cc([C@@H](CF)c4c(OC(F)F)ccc(F)c4Cl)c3c2)cnn1[C@H]1CC[C@H](O)CC1 [Example 123, trans-4-[4-(3-{(1R)-1-[2-chloro-6-(difluoromethoxy)-3-fluorophenyl]-2-fluoroethyl}-1H-pyrrolo[2,3-b]pyridin-5-yl)-5-methyl-1H-pyrazol-1-yl]cyclohexanol] |
